These results are taken from PMC6522510 (Nature Communications, 2019).

pEC50: −log10 of the molar value. Like-named read-outs stand apart in the source and are kept apart here.

For experiment [1], the system named is CHRF288-11. Briefly: cells. The following applies: 72 h, read-out: CHRF288-11. Also noted: species or system AML cell lines (8); Secondary HTS, 10-point dose-response in triplicate, Cell Titer Glo viability, four-parameter fit EC50.
The test system of experiment [2] is M07e. Briefly: cells. Also noted: species or system AML cell lines (8); Secondary HTS, 10-point dose-response in triplicate, Cell Titer Glo viability, four-parameter fit EC50. The following applies: M-07e, 72 h, read-out: M07e.
In experiment [3] the test system is U937. Briefly: cells. Also on record: species or system AML cell lines (8); Secondary HTS, 10-point dose-response in triplicate, Cell Titer Glo viability, four-parameter fit EC50. The following applies: Homo sapiens, U-937, 72 h, read-out: U937.
Experiment [4] has as its system CMS. In words: cells. Also noted: species or system AML cell lines (8); Secondary HTS, 10-point dose-response in triplicate, Cell Titer Glo viability, four-parameter fit EC50. The following applies: 72 h, read-out: CMS.
In experiment [5] the test system is ML-2. Briefly: cells. Also on record: species or system AML cell lines (8); Secondary HTS, 10-point dose-response in triplicate, Cell Titer Glo viability, four-parameter fit EC50. To be noted: Homo sapiens, ML-2, 72 h, read-out: ML-2.
For experiment [6], the system named is MV4-11. In words: cells. Also on record: species or system AML cell lines (8); Secondary HTS, 10-point dose-response in triplicate, Cell Titer Glo viability, four-parameter fit EC50. The following applies: Homo sapiens, MV4-11, 72 h, read-out: MV4-11.
Experiment [7] concerns MOLM-13. Briefly: cells. Also noted: species or system AML cell lines (8); Secondary HTS, 10-point dose-response in triplicate, Cell Titer Glo viability, four-parameter fit EC50. To be noted: Homo sapiens, MOLM-13, 72 h, read-out: MOLM-13.
Experiment [8] concerns CMK. In words: Secondary dose-response HTS, Cell Titer Glo. The experiment is classed as cell-based, human. The following applies: Homo sapiens, CMK, read-out: average effective concentration, CMK. Background: ATP-based viability assays read luminescence as a measure of living cells.
Experiment [9] concerns MV4-11. Briefly: Secondary dose-response HTS, Cell Titer Glo. Format: cell-based, human. To be noted: Homo sapiens; secondary high-throughput screen; MV4-11; read-out: average effective concentration, MV4-11.
The subject of experiment [10] is MOLM-13. Briefly: Secondary dose-response HTS, Cell Titer Glo. Format: cell-based, human. To be noted: Homo sapiens; secondary high-throughput screen; MOLM-13; read-out: average effective concentration, MOLM-13.
For experiment [11], the system named is U937. In words: Secondary dose-response HTS, Cell Titer Glo. The experiment is classed as cell-based, human. The following applies: Homo sapiens.
Experiment [12] concerns CHRF288-11. In words: Secondary dose-response HTS, Cell Titer Glo. The experiment is classed as cell-based, human. To be noted: Homo sapiens, HTS; secondary high-throughput screen; CHRF288-11; read-out: average effective concentration, CHRF288-11.
Setting [13] is: secondary high-throughput screen.
[14] abbreviates: U-937, secondary high-throughput screen, U937, read-out: average effective concentration, U937.

Regarding `N[C@@H]1C[C@H]1c1ccccc1` (racemic) [SJ000286124, TRANYLCYPROMINE], the pEC50 in [1], in [2], in [3], in [4], in [5] and in experiment [6] was less than 5.00 each time. Also, the pEC50 in experiment [7] was less than 5.00.
`CC(=O)O[C@H]1CC[C@@]2(C)C(=CC[C@@H]3[C@@H]2CC[C@]2(C)C(c4cccnc4)=CC[C@@H]32)C1` [ABIRATERONE ACETATE]: the pEC50 in [1], in experiment [2], in [3], in experiment [4], in [5] and in experiment [6] was less than 5.00 throughout. For the same molecule, the pEC50 in [8] (setting [13]) was 5.28; in [7], less than 5.00.
Take `COc1cc(CCc2cc(NC(=O)c3ccc(N4C[C@@H](C)N[C@@H](C)C4)cc3)n[nH]2)cc(OC)c1` [AZD4547]: the pEC50 in experiment [1], in experiment [2], in [3], in experiment [4] and in experiment [5] was less than 5.00 each time.
For the molecule `C=C(c1ccc(C(=O)O)cc1)c1cc2c(cc1C)C(C)(C)CCC2(C)C` [BEXAROTENE], the pEC50 in [1] was less than 5.00; in [2], less than 5.00; in [3] it was less than 5.00; in experiment [4], less than 5.00; in [9] it was 5.68; in experiment [5] it was less than 5.00. Besides, the pEC50 is 5.09 in [8] (setting [13]) and less than 5.00 in experiment [7].
On to `COc1cc2nccc(Oc3ccc(NC(=O)C4(C(=O)Nc5ccc(F)cc5)CC4)cc3)c2cc1OC` [CABOZANTINIB], for which the pEC50 in experiment [1] is less than 5.00; in [2] it was less than 5.00; in experiment [3], less than 5.00; in experiment [4], less than 5.00; in [9] it was 9.00; in experiment [5], less than 5.00. Further, the results for the pEC50 in experiment [8] (setting [13]) and in experiment [10] were 5.14 and 7.30, respectively.
With `CC(C)C[C@H](NC(=O)[C@H](CCc1ccccc1)NC(=O)CN1CCOCC1)C(=O)N[C@@H](Cc1ccccc1)C(=O)N[C@@H](CC(C)C)C(=O)[C@@]1(C)CO1` [Carfilzomib], in experiment [5], the pEC50 was 8.54.
Still for that read-out and setting: in the case of `Nc1nc(Cl)nc2c1ncn2[C@@H]1O[C@H](CO)[C@@H](O)[C@@H]1F` [Clofarabine, clofarabine] it was 6.90.
Regarding `Cn1c(=O)n(-c2ccc(C(C)(C)C#N)cc2)c2c3cc(-c4cnc5ccccc5c4)ccc3ncc21` [DACTOLISIB], the pEC50 in [1], in [2], in [3], in [4], in [5] and in experiment [6] was less than 5.00 each time. Besides, the pEC50 in experiment [8] (setting [13]) is 7.18; in [7], less than 5.00.
As to `Nc1ncn([C@H]2C[C@H](O)[C@@H](CO)O2)c(=O)n1` [DECITABINE], the pEC50 in experiment [2] was less than 5.00; in experiment [4], less than 5.00; in experiment [11] (setting [14]), 6.51; in [5] it was less than 5.00; in experiment [12], 5.15; in [6], 5.02. Moreover, the pEC50 was 5.37 in [8] (setting [13]) and 9.00 in [10].
With `CC(=O)O[C@@]12CO[C@@H]1C[C@H](O)[C@@]1(C)C(=O)[C@H](O)C3=C(C)[C@@H](OC(=O)[C@H](O)[C@@H](NC(=O)OC(C)(C)C)c4ccccc4)C[C@@](O)([C@@H](OC(=O)c4ccccc4)[C@H]21)C3(C)C` [Docetaxel, docetaxel], the pEC50 in experiment [5] is less than 5.00.
For the molecule `NC(=O)c1ccc(I)c([N+](=O)[O-])c1` [INIPARIB], the pEC50 in [1], in experiment [2], in experiment [3], in experiment [4], in [5] and in experiment [6] was less than 5.00 in each case. Moreover, the pEC50 in [10] was less than 5.00.
In the case of `CCC(C)n1ncn(-c2ccc(N3CCN(c4ccc(OCC5COC(Cn6cncn6)(c6ccc(Cl)cc6Cl)O5)cc4)CC3)cc2)c1=O` (stereo not drawn) [ITRACONAZOLE], the pEC50 in experiment [1], in experiment [2], in experiment [3], in [4], in [5] and in experiment [6] was less than 5.00 each time. The pEC50 in [8] (setting [13]) is 5.19; in experiment [7], less than 5.00.
Take `C=CC(=O)N1CCC[C@@H](n2nc(-c3ccc(Oc4ccccc4)cc3)c3c(N)ncnc32)C1` [Ibrutinib]: the pEC50 in experiment [1], in experiment [2] and in [5] was less than 5.00 each time.
Regarding `O=C(O)CNC(=O)C(=O)O` [N-OXALYLGLYCINE], the pEC50 in [1] was less than 5.00; in experiment [2], less than 5.00; in experiment [4], less than 5.00; in [11] (setting [14]), 5.48; in experiment [5], less than 5.00; in experiment [6] it was less than 5.00. The pEC50 in experiment [10] was 5.64.
As for `Cc1ncc(CNC(=O)N(CCCl)N=O)c(N)n1` [NIMUSTINE], the pEC50 in experiment [1], in [2], in experiment [3], in experiment [4], in experiment [5] and in [6] was less than 5.00 in each case. Moreover, the values for the pEC50 in experiment [8] (setting [13]) and in experiment [7] were 5.00 and less than 5.00, respectively.
Take `CC(=O)c1c(C)c2cnc(Nc3ccc(N4CCNCC4)cn3)nc2n(C2CCCC2)c1=O` [Palbociclib]: the pEC50 in experiment [1], in experiment [2], in experiment [5], in experiment [6] and in experiment [7] was less than 5.00 each time.
In the case of `CS(=O)(=O)N1CCN(Cc2cc3nc(-c4cccc5[nH]ncc45)nc(N4CCOCC4)c3s2)CC1` [Pictilisib], the pEC50 in experiment [1], in experiment [2], in experiment [3], in experiment [4], in [5] and in experiment [6] was less than 5.00 each time. For the same molecule, in experiment [7], the pEC50 was less than 5.00.
With `Cn1cc(CNCC2CCN(c3ncc(C(=O)NO)cn3)CC2)c2ccccc21` [Quisinostat], the figures for the pEC50 in [2], in experiment [3] and in [5] were 8.38, 8.28 and 8.41, respectively.
As to `Nc1ncnc2c1ncn2[C@@H]1C=C(CO)[C@@H](O)[C@H]1O` [SJ000784248, NEPLANOCIN A], the pEC50 is 5.19 in experiment [1]; less than 5.00 in [2]; 5.96 in experiment [3]; less than 5.00 in experiment [4]; 5.24 in experiment [5]; less than 5.00 in experiment [6]. Besides, in [7], the pEC50 is 6.44.
In the case of `CN(C)C1CCN(C(=O)c2ccc(NC(=O)Nc3ccc(-c4nc(N5CCOCC5)nc(N5CCOCC5)n4)cc3)cc2)CC1` [SJ000784327, PF-05212384], the pEC50 in experiment [1], in experiment [2], in [4] and in [5] was less than 5.00 each time.
In the case of `N[C@@H]1C[C@H]1c1cc(F)cc(F)c1OCc1ccccc1` [SJ000785902, S2101], the pEC50 in experiment [1], in experiment [2], in experiment [3], in experiment [4], in [5] and in experiment [6] was less than 5.00 in each case. In experiment [7], the pEC50 is less than 5.00.
Take `Nc1nccc2c1ncn2[C@@H]1C=C(CO)[C@@H](O)[C@H]1O` [SJ000785904, 3-DEAZANEPLANOCIN]: the pEC50 in [1] was 5.74; in experiment [2], 9.00; in [3], less than 5.00; in experiment [4] it was less than 5.00; in experiment [5], less than 5.00; in [6] it was less than 5.00. In addition, in experiment [7], the pEC50 is 6.72.
With `Cn1cncc1[C@@](N)(c1ccc(Cl)cc1)c1ccc2c(c1)c(-c1cccc(Cl)c1)cc(=O)n2C` [TIPIFARNIB], the pEC50 is less than 5.00 in [1]; less than 5.00 in experiment [2]; less than 5.00 in experiment [4]; 6.27 in experiment [11] (U-937, read-out: average effective concentration, U937); less than 5.00 in experiment [5]; less than 5.00 in [6]. Also, the pEC50 was 5.85 in experiment [8] and less than 5.00 in experiment [7].
Consider `COc1cc2c(Nc3ccc(Br)cc3F)ncnc2cc1OCC1CCN(C)CC1` [VANDETANIB], for which the pEC50 in [1], in experiment [2], in experiment [3], in [4], in experiment [5] and in [6] was less than 5.00 throughout. Further, the pEC50 was 5.24 in experiment [8] and 5.00 in experiment [10].
